In PubChem BioAssay AID1897 (NMMLSC, 2009):
The source made the active and inactive calls. No rule for the calls is given here.

target: Mitogen-activated protein kinase kinase kinase 2 (Homo sapiens) + Dual specificity mitogen-activated protein kinase kinase 5 (Homo sapiens) (UniProt Q9Y2U5+Q13163); assay: inhibitors of MEK5 binding to MEKK2, dose response, biochemical, bead multiplex flow cytometry, wildtype (AID 1897); settings: MEK5-MEKK2 PB1 binding
Sequence (Q13163 whole entry, looked up): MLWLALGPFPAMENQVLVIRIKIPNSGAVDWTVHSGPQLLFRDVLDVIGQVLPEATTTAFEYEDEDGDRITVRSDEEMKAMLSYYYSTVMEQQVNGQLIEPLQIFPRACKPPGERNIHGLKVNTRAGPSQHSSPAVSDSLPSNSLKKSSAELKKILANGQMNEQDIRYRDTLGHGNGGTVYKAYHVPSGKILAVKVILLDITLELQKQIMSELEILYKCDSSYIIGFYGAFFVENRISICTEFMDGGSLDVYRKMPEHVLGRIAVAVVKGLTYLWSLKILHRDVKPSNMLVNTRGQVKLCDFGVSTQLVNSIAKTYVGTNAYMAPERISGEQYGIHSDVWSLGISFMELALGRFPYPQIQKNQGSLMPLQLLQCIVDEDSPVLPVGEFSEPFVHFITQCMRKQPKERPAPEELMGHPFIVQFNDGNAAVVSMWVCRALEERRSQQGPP
Sequence (Q9Y2U5 whole entry, looked up): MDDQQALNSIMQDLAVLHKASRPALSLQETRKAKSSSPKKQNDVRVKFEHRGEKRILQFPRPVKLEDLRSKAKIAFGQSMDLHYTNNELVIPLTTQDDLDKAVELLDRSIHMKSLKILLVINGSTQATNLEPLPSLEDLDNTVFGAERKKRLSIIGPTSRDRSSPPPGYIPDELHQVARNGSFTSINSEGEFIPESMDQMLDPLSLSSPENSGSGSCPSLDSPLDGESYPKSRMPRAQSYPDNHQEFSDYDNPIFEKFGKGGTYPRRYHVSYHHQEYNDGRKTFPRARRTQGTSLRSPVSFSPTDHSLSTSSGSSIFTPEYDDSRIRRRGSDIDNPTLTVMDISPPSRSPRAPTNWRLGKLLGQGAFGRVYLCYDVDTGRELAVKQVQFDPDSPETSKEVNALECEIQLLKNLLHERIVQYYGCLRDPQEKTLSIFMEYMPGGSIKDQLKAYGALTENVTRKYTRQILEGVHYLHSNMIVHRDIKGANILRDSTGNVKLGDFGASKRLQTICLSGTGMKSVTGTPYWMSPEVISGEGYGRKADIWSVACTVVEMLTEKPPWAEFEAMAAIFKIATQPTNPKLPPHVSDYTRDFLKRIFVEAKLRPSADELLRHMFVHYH

Row | SMILES | EC50
1 | CCN1/C(=C/c2ccc3cc(C)ccc3[n+]2C)Sc2ccc3sccc3c21 | > 30 µM (inactive)
2 | CCC(/C=C1\Sc2ccc(OC)cc2N1CC)=C\c1sc2ccc(OC)cc2[n+]1CCCS(=O)(=O)[O-] | 4.49 µM
3 | C#CCOCCOCCOCCNc1nc(N2CCN(C(=O)[C@H](Cc3cc4ccccc4[nH]3)n3cc([C@@H](N)C(C)CC)nn3)CC2)nc(N2CCN(C(=O)[C@H](CCCCN)n3cc([C@@H](N)CC(C)C)nn3)CC2)n1 (some centres not stated) | 6.9 µM
4 | CCOC(=O)c1c(CSC(=N)N)n(-c2ccc(C)cc2)c2cc(Br)c(OC(C)=O)cc12 | 5.2 µM
5 | CCCCCCCCCC[N+](C)(C)CC/C=C1/c2ccccc2Sc2ccc(Cl)cc21 | 2.24 µM
6 | COc1ccc2nc(C)cc(N/N=C/c3cccc(OC)c3O)c2c1 | > 30 µM (inactive)
7 | COc1cc(CNCCc2c[nH]c3ccccc23)ccc1OCc1ccccc1F | > 30 µM (inactive)
8 | C#CCOCCOCCOCCNc1nc(N2CCN(C(=O)C([C@@H](C)CC)n3cc(C(N)COC(=O)C(F)(F)F)nn3)CC2)nc(N2CCN(C(=O)[C@H](CCCCN)n3cc(C(N)[C@H](C)CC)nn3)CC2)n1 (some centres not stated) | > 30 µM (inactive)
9 | CCN(CC)CCOc1ccc2c(c1)C(=NNC(=O)c1ccccn1)c1cc(OCCN(CC)CC)ccc1-2 | 5.71 µM
10 | CCN(CC)CCOC(=O)c1ccc(N/C=C(/C#N)c2nc(-c3cc4ccccc4oc3=O)cs2)cc1 | 4.88 µM
11 | CCN1CCN(Cc2ccc(NC(=O)c3cc(NC(=O)c4cncc(-c5cccs5)c4)cc(OC)c3)cc2C(F)(F)F)CC1 | > 30 µM (inactive)
12 | Nc1ccc(Nc2ccccc2N)cc1 | 23.6 µM
13 | C#CCOCCOCCOCCNc1nc(N2CCN(C(=O)[C@H](Cc3cc4ccccc4[nH]3)n3cc([C@@H](N)C(C)CC)nn3)CC2)nc(N2CCN(C(=O)[C@H](Cc3cc4ccccc4[nH]3)n3cc([C@@H](N)Cc4ccc(O)cc4)nn3)CC2)n1 (some centres not stated) | 1.01 µM
14 | CCOc1cccc2sc(N(CCCN(C)C)C(=O)c3ccc(S(=O)(=O)N4CCc5ccccc5C4)cc3)nc12 | 13.2 µM
15 | C#CCOCCOCCOCCNc1nc(N2CCN(C(=O)[C@H](Cc3ccc(O)cc3)n3cc([C@@H](N)C(C)CC)nn3)CC2)nc(N2CCN(C(=O)[C@H](Cc3cc4ccccc4[nH]3)n3cc([C@@H](N)CC(C)C)nn3)CC2)n1 (some centres not stated) | > 30 µM (inactive)
16 | COc1ccccc1N1CCN(S(=O)(=O)c2ccc(Cl)s2)CC1 | > 30 µM (inactive)
17 | CC[n+]1c(/C=C/C=C/N(C(C)=O)c2ccccc2)sc2ccccc21 | > 30 µM (inactive)
18 | NC(N)=N/N=C/c1ccc(OCc2ccccc2Cl)cc1 | 19.2 µM
19 | CCN(Cc1ccccc1)S(=O)(=O)c1ccc(C(=O)N(CCCN(C)C)c2nc3ccc(F)cc3s2)cc1 | 5.81 µM
20 | C#CCOCCOCCOCCNc1nc(N2CCN(C(=O)C(Cc3ccc(O)cc3)n3cc(C(N)CC(C)C)nn3)CC2)nc(N2CCN(C(=O)C(Cc3cc4ccccc4[nH]3)n3cc(C(N)C(C)CC)nn3)CC2)n1 (configuration not stated) | > 30 µM (inactive)
21 | O=C(c1cc(COc2c(F)cccc2F)on1)N1C[C@H]2CC[C@H]1C2 | > 30 µM (inactive)
22 | COc1ccc(-c2csc(N(CCCN(C)C)C(=O)c3ccccc3Cl)n2)cc1 | > 30 µM (inactive)
23 | Cc1ccccc1OCC(O)CNC1CCC(NCC(O)COc2ccccc2C)CC1 (configuration not stated) | > 30 µM (inactive)
24 | CCCCCc1cc(=O)oc2c(C(CCN3CCCCC3)c3ccc4c(c3)OCO4)c(OC)cc(OC)c12 (configuration not stated) | > 30 µM (inactive)
25 | c1ccc(CNc2nc(NCc3ccccc3)c3ccccc3n2)cc1 | > 30 µM (inactive)
26 | COc1ccc(Cn2c(SCc3ccc(C)cc3)nc3cc(OC)c(OC)cc3c2=N)cc1Cl | 1.97 µM
27 | O=C1c2ccccc2-c2onc3ccc(NCCCn4ccnc4)c1c23 | > 30 µM (inactive)
28 | C#CCOCCOCCOCCNc1nc(N2CCN(C(=O)[C@H](Cc3cc4ccccc4[nH]3)n3cc([C@@H](N)CC(C)C)nn3)CC2)nc(N2CCN(C(=O)[C@H](Cc3cc4ccccc4[nH]3)n3cc([C@@H](N)CC(C)C)nn3)CC2)n1 | > 30 µM (inactive)
29 | COC(=O)c1c(C)oc(C)c1S(=O)(=O)N(Cc1ccccc1)C(C)C | > 30 µM (inactive)

Now from value to compound:

Row | EC50 | SMILES
30 | 1.12 µM | CCCCn1c(O)c(/C=C/C=C/C=Nc2ccccc2)sc1=S
31 | 14.6 µM | Cc1cc2ccccc2n1CCNC(=O)c1cccs1
32 | 4.13 µM | Cc1cc2cc(CNC(=O)NC3CCCCC3)ccc2[nH]1
33 | 0.14 µM | CCC(=C/c1sc2ccc3ccccc3c2[n+]1C)/C=C1\Sc2ccc3ccccc3c2N1C
34 | 3.78 µM | Nc1ccc(N)c(C(=O)O)c1
35 | > 30 µM (inactive) | CCCCCCCCCCOC(=O)Cn1c(COc2ccccc2C)[n+](C)c2ccccc21
36 | > 30 µM (inactive) | COc1ccc(NC(=O)N(Cc2cc3cc(C)ccc3[nH]c2=O)CC2CCCO2)cc1 (configuration not stated)
37 | 0.34 µM | CCN1CCN(Cc2ccc(NC(=O)c3cc(NC(=O)C(=O)c4c[nH]c5ccccc45)cc(OC)c3)cc2C(F)(F)F)CC1
38 | 1.91 µM | NC(N)=N/N=C/c1ccc(OCc2ccc(Cl)cc2Cl)cc1
39 | > 30 µM (inactive) | CCN1/C(=C\c2ccc3cc(C)ccc3[n+]2CC)Sc2cc(C)c(C)cc21
40 | 1.94 µM | COc1ccc(/C=N/Nc2cc(C)nc3ccc(Br)cc23)cc1
41 | > 30 µM (inactive) | S=c1[nH]nc(-c2ccc(Cl)cc2)n1-c1ccc2c(c1)OCCO2
42 | 20.9 µM | CCCCCc1cc(=O)oc2c(C(CCN3CCCC3)c3ccc(N(C)C)cc3)c(OC)cc(OC)c12 (configuration not stated)
43 | > 30 µM (inactive) | CCN(CC)CCOC(=O)c1ccc(N/C=C(/C#N)c2nc(-c3ccc4c(c3)OCO4)cs2)cc1
44 | > 30 µM (inactive) | COc1ccc(-c2cc(C#N)nc(N3CCNCC3)n2)cc1
45 | 14.4 µM | CCCCN(CC)CCNC(=O)c1cc2c(-c3ccc(Cl)cc3)nn(C)c2s1
46 | > 30 µM (inactive) | COc1ccc2nc(C)cc(N/N=C/c3ccc(F)cc3)c2c1
47 | > 30 µM (inactive) | Cc1nc(Nc2cnc(/C=C/c3cc(C(=O)Nc4cccc(C(F)(F)F)c4)ccc3C)cn2)cc(N2CCNCC2)n1
48 | > 30 µM (inactive) | Brc1ccc(N=C/C=C/C=C/Nc2ccc(Br)cc2)cc1
49 | > 30 µM (inactive) | CC(=O)Nc1ccc(OCC(O)Cn2c3ccccc3c3ccccc32)cc1 (configuration not stated)
50 | 5.14 µM | C#CCOCCOCCOCCNc1nc(N2CCN(C(=O)[C@H](Cc3ccc(O)cc3)n3cc([C@@H](N)CC(C)C)nn3)CC2)nc(N2CCN(C(=O)[C@H](Cc3cc4ccccc4[nH]3)n3cc([C@@H](N)CC(C)C)nn3)CC2)n1
51 | 3.51 µM | CN1C(=O)/C(=C\c2ccc(-c3ccccc3)o2)SC1=S
52 | > 30 µM (inactive) | CCOC(=O)c1c(C)n(-c2ccc(C)cc2)c2ccc(OCC(O)CN3CCN(C)CC3)cc12 (configuration not stated)
53 | > 30 µM (inactive) | Cc1ccc(-c2csc(NC(=O)C[n+]3cc(-c4ccc(C)cc4)n4c3CCC4)n2)cc1
54 | > 30 µM (inactive) | O=[N+]([O-])c1ccc(/C=C/C2=NN(c3ccccc3)C(c3ccco3)C2)o1 (configuration not stated)
55 | 3.78 µM | CCN1CCN(CCNC(=O)c2ccc(/C=C3/Sc4ccccc4N(Cc4cccc(Cl)c4)C3=O)cc2)CC1
56 | > 30 µM (inactive) | O=C(Nc1ccc(Cl)cn1)c1ccc2c(Cl)c3c(nc2c1)CCC3
57 | > 30 µM (inactive) | CCCCCc1cc(=O)oc2c(C(CCN3CCCCC3)c3ccc(OC)cc3)c(OC)cc(OC)c12 (configuration not stated)

same assay, conditions: MEK5-MEKK2 PB1 binding, measured here: Ki from binding competition

Row | SMILES | Ki [µM]
58 | CCC(/C=C1\Sc2ccc(OC)cc2N1CC)=C\c1sc2ccc(OC)cc2[n+]1CCCS(=O)(=O)[O-] | 4.01
59 | Cc1c2cc(O)c(=O)cc-2oc2cc(O)c(O)cc12 | 3.59
60 | CCN(CC)CCOC(=O)c1ccc(N/C=C(/C#N)c2nc(-c3cc4ccccc4oc3=O)cs2)cc1 | 4.36
61 | Nc1ccc(Nc2ccccc2N)cc1 | 21.1

Continued, values first:

Row | Ki [µM] | SMILES
62 | 1 | CCCCn1c(O)c(/C=C/C=C/C=Nc2ccccc2)sc1=S
63 | 13.1 | Cc1cc2ccccc2n1CCNC(=O)c1cccs1
64 | 3.69 | Cc1cc2cc(CNC(=O)NC3CCCCC3)ccc2[nH]1
65 | 0.12 | CCC(=C/c1sc2ccc3ccccc3c2[n+]1C)/C=C1\Sc2ccc3ccccc3c2N1C
66 | 3.39 | Nc1ccc(N)c(C(=O)O)c1
67 | 3.14 | CN1C(=O)/C(=C\c2ccc(-c3ccccc3)o2)SC1=S
